# From patent US20190314345A1, “CALCINEURIN INHIBITOR AND NON-STEROIDAL ANTI-INFLAMMATORY DRUG TO REDUCE RISK OF POST-IMAGING PANCREATITIS” (UNIVERSITY OF PITTSBURGH - OF THE COMMONWEALTH SYSTEM OF …, priority 2016, published 2019)
# Columns and labels:
# PEP model in mice [1] = assay: Intra-ductal RC infusion PEP model in mice: histological severity, serum amylase; format: in vivo, mouse
# From the text: The procedure for retrograde infusion into the CBD and pancreatic duct has been described before^14. Briefly, Swiss Webster mice were anesthetized with isoflurane. A midline incision was made to reveal the abdominal cavity. The duodenum was flipped to reveal its distal side and held in place by ligatures. […] needle was inserted through the anti-mesenteric aspect of the duodenum to cannulate the CBD. A small bull dog clamp was applied to the distal CBD (near the duodenum) to prevent back flow of the infusate into the duodenal lumen and to hold the cannula in place. A larger bull dog clamp was applied to the proximal CBD (near the liver) to prevent infusion into the liver and thus to direct flow to the pancreatic duct. Total volumes of 50-100 μl of iohexol, iopamidol, or normal saline (NS) were infused at 10-20 μl per min for 5 min using a P33 perfusion pump (Harvard Apparatus, Holliston, Mass.). Upon completion of the infusion, the bull dog clamps were released. The exterior abdominal wound was closed using 7 mm wound clips, and a single injection of buprenorphine (0.075 mg/kg) was given immediately after the surgery. Mice recovered on a heating pad for 30 min after the procedure. They were given free access to food and water after the surgery. The pancreas, duodenum, and spleen were fixed at room temperature for 24 hr in 4% paraformaldehyde. Paraffin-embedded sections were stained with hematoxylin an eosin (HE) and graded using a 20× objective over 10 separate fields in a blinded fashion. Pancreas tissue was graded for edema, inflammatory infiltrate, and necrosis as described by Wildi et al.^67. Whole blood samples were centrifuged at 1500×g for 5 min at 4° C. Serum amylase was measured using a Phadebas kit (Amersham Pharmacia, Rochester N.Y.) as previously described^68.
# calcineurin = assay: NFAT-luciferase activity assay in AR42J cells; format: cell-based; conditions: pretreatment; FK506 24 μM, CsA 16 μM, U73122 5 μM, 2-APB 100 μM, BAPTA 64 μM
# Procedure: Acinar cells were infected with Ad-NFAT-luciferase following a previously described procedure^10, 15, 16. The construct includes a luciferase gene placed downstream of an IL-4 promoter which contains nine tandem NFAT binding sites^10. Acinar cells were incubated with the NFAT-driven luciferase adenovirus for 1.5 hr prior to stimulation. All of the stated inhibitors were added for 30 min prior to stimulation with RC. NFAT-luciferase was measured using the luciferase assay system. Briefly, cells were spun at 1,000 rpm for 5 min, washed with PBS, and lysed using reporter lysis 5× buffer (Promega #E397A, Madison, Wis.). Samples were vortexed and spun at 12,000 g for 2 min. Supernatant was plated, and luminescence was measured using a Synergy H1 plate reader (BioTek, Winooski, Vt.) and normalized to total protein.
# NF-κB = assay: NF-κB-luciferase activity assay in AR42J cells; format: cell-based; conditions: FK506 24 μM, CsA 16 μM; P<0.05
# Procedure: AR42J cells were differentiated towards an acinar phenotype by administering dexamethasone (100 nM) for 48-72 hr^17. AR42J cells were infected with Ad-NF-κB luciferase 16 h prior to stimulation using a previously described method^12. Following a wash with DMEM/F12 medium, acinar cells were evenly distributed in a 48-well plate and incubated for 30 min at 37° C. They were incubated with RC at varying concentrations and times. NF-κB-luciferase was measured using a commercially available luciferase assay (Promega, Madison, Wis.). Briefly, cells were spun at 1,000 rpm for 5 min, washed with PBS, and lysed using reporter lysis 5× buffer (Promega, catalog no. E397A). Samples were vortexed and spun at 12,000×g for 2 min. The supernatant was plated, and luminescence was measured using a Synergy H1 plate reader (BioTek, Winooski, Vt.) and normalized to […].
# pancreatic acinar cells = assay: ATP level measurements in acinar cells; format: cell-based, mouse; conditions: RC 12% for 3.5 hr
# Procedure: Following isolation, pancreatic acinar cells were cultured in DMEM/F12 Medium (0.5 ml/well of a 48-well plate) at 37° C. water bath and treated with RC±FK506. Cells were collected at indicated time points and lysed in 100 lysis buffer (100 mM Tris pH 7.75, 4 mM EDTA). ATP levels were measured from 20 μl aliquots of acinar cell lysates using the ENLITEN luciferase/luciferin reagent (Promega catalog no. FF2021).
# [2] = system: IL-6, GADD45B, IL-1β expression; assay: Real-time PCR gene expression from the pancreatic head; format: in vivo, mouse; conditions: RC exposure, with or without FK506 pretreatment
# Procedure: Total RNA from the pancreatic head was obtained by homogenizing 40 mg of tissue in 2 ml of TRIzol reagent (Life Technologies; Grand Island N.Y.) at 4° C. and immediately flash frozen in liquid nitrogen. Samples were thawed on ice and centrifuged at 12,000×g for 10 min at 4° C. The supernatant was diluted with 200 μl of chloroform and centrifuged at 12,000×g for 15 min at 4° C. The upper aqueous phase was treated with 0.5 ml of isopropanol and centrifuged at 10,000×g for 10 min at 4° C. The pellet was resuspended with 150 μl of 75% ethanol and centrifuged at 7500×g for 5 min at 4° C. The pellet was air-dried and dissolved in 100 μl of nuclease-free water. Total RNA samples were used to generate cDNA using the iScript Advanced cDNA synthesis Kit (Bio Rad; Hercules, Calif.).
# Quantitative real-time PCR (rtPCR) was performed to determine the relative expression of the cytokines IL-6 and IL-1β as well as the cell growth arrest and DNA-damage inducible gene GADD45B. The primer pairs for each as well as a GAPDH control were obtained as part of the PrimePCR-PreAMP SYBR Green Assay (Bio Rad; unique assay ID # qMmuCEP0054186, qMmuCID0005641, qMmuCEP0039581). rtPCR reactions were carried out in 20 μl volume reactions using the SsoAdvanced Universal Supermix SYBR Green system (Bio Rad). The reactions contained 1× SsoAdvanced Universal SYBR Green Supermix, 300 nM forward Primer, 300 nM reverse primer and 100 ng cDNA. rtPCR conditions were 95° C. for 10 sec and 60° C. for 30 sec for 35 cycles on a Bio Rad CFX96 Touch thermocycler (Bio Rad). Results for the expression of mRNA were normalized to expression of […] and are represented relative to expression levels for each of the control groups.
# PEP model in mice [3] = conditions: in vivo model of PEP in mice; earlier work; cited from earlier work
structure (smiles),measurement,setting,value
"C=CC[C@@H]1/C=C(\C)C[C@H](C)C[C@H](OC)[C@H]2O[C@@](O)(C(=O)C(=O)N3CCCC[C@H]3C(=O)O[C@H](/C(C)=C/[C@@H]3CC[C@@H](O)[C@H](OC)C3)[C@H](C)[C@@H](O)CC1=O)[C@H](C)C[C@@H]2OC [FK506, tacrolimus]",effect when given after PEP induction,PEP model in mice [1]; FK506 1 mg/kg after the infusion of RC,reduces pancreatic inflammation
same,serum amylase,"PEP model in mice [1]; FK506 1 mg/kg intraperitoneal 1 hr prior and 2.5, 5.5, 12 hr after RC infusion",reduced down to the level of the NS sham condition
same,histological severity of the pancreas following pancreatitis,"PEP model in mice [1]; FK506 1 mg/kg intraperitoneal 1 hr prior and 2.5, 5.5, 12 hr after RC infusion, 24 hr",prevented
same,effect of FK506 compared with therapeutic indomethacin on RC-induced pancreatitis,"PEP model in mice [1]; FK506 1 mg/kg, indomethacin 7 mg/kg IP after RC infusion",as robust
same,effect on RC (6%)-induced NFAT-luciferase activity,calcineurin,prevented
same,reduction of RC-induced NF-κB,NF-κB,73%
same,effect on RC-induced ATP depletion,pancreatic acinar cells,failed to prevent ATP depletion
same,gene expression of GADD45B,[2],significant reduction
same,gene expression of IL-1β,[2],trend toward reduction
same,gene expression of IL-6,[2],significant reduction
same,effect of systemic frequent prophylactic dosing on PEP,PEP model in mice [3],prevented PEP
